Patent US20240065971A1, “METHODS OF TREATING ABC-DLBCL USING INHIBITORS OF BRUTONS TYROSINE KINASE” (Pharmacyclics LLC, priority 2010, published 2024)

Key:
OCI-Ly10 cells [1] = assay: Dose response of p-ERK by Western blotting; assay type: cell-based
OCI-Ly10 cells [2] = conditions: 10 nM, up to 4 hours
[3] = system: OCI-Ly10 tumor xenografts; assay: OCI-Ly10 tumor xenografts in female SCID mice; assay type: in vivo; conditions: once a day 3 mg/kg or 12 mg/kg, vs vehicle
Description: Female SCID mice were implanted with 10 million […] cells in Matrigel and tumors were allowed to reach 100 mm^3.

OCI-Ly3 cells [4] = conditions: 10 nM, up to 4 hours
OCI-Ly10 cells [5] = assay: RT-PCR (Taqman) of NF-kB target genes; assay type: cell-based; conditions: 100 nM, 4 hrs
OCI-Ly10 cells [6] = assay: Constitutive IL-10 secretion by ELISA; assay type: cell-based
OCI-Ly3 cells [7] = assay: IgM/IgG stimulated calcium flux (Fura-2AM); assay type: cell-based; conditions: OCI-Ly3, inhibitor added 5 min before stimulation
Description: (§1) The kinetics of calcium flux were quantitated by optical spectroscopy following standard procedures.

OCI-Ly10 cells [8] = assay: IgM/IgG stimulated calcium flux (Fura-2AM); assay type: cell-based; conditions: OCI-Ly10, inhibitor added 5 min before stimulation
Description: as §1

Row | Structure (SMILES) | concentration that decreases p-ERK (OCI-Ly10 cells [1]) [nM] | Phosphorylation of AKT (OCI-Ly10 cells [2]) | Phosphorylation of ERK (OCI-Ly10 cells [2]) | tumor growth [3] | Phosphorylation of AKT (OCI-Ly3 cells [4]) | Myc expression (OCI-Ly10 cells [5]) | Constitutive IL-10 secretion (OCI-Ly10 cells [6]) | calcium flux after stimulation (OCI-Ly3 cells [7]) | calcium flux after stimulation (OCI-Ly10 cells [8])
1 | C=CC(=O)N1CCC[C@@H](n2nc(-c3ccc(Oc4ccccc4)cc3)c3c(N)ncnc32)C1 [Btk inhibitor] | 1 | rapidly abolished | rapidly abolished | dose-dependent inhibition | inhibited | maximally downregulated | inhibited | dose-dependent reduction | dose-dependent reduction
2 | CC[C@H](Nc1ncnc2[nH]cnc12)c1nc2cccc(F)c2c(=O)n1-c1ccccc1 [CAL-101, reference compound] | 100 | – | – | – | – | – | – | – | –
